How the values were obtained:
IDH1 (R132C) = IDH1 (R132C) (Homo sapiens, UniProt O75874, R132C); experiment: IDH enzyme assay, NADPH production or depletion measured by diaphorase/resazurin coupled detection; assay type: biochemical; conditions: read-out: Compound IC50 (M) IDH1 (R132C)
Procedure: (§1) Compounds were tested against 2 enzymes.
(§2) The production or depletion of NADPH by IDH enzymes was measured by diaphorase/resazurin coupled detection.

IDH1 (R132H) = IDH1 (R132H) (Homo sapiens, UniProt O75874, R132H); experiment: as above; assay type: biochemical; conditions: read-out: Compound IC50 (M) IDH1 (R132H)
IDH1 (R132H), sequence (O75874 whole entry R132H): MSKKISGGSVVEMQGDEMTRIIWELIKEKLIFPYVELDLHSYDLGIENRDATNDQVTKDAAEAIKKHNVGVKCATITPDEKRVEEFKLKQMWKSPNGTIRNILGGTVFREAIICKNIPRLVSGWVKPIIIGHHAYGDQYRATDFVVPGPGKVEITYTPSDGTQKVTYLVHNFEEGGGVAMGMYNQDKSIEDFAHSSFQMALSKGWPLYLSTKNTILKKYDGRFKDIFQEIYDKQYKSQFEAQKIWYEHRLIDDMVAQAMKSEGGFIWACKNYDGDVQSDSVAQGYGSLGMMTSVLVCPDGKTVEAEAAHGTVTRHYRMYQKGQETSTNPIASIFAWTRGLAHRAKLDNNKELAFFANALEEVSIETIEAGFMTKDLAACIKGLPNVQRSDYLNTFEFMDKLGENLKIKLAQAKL
Procedure: as §1, §2

IDH1 (R132C), sequence (O75874 whole entry R132C): as the sequence (O75874 whole entry R132H) above, with H132C counted along it

IC50 (IDH1 (R132C)) [M]	IC50 (IDH1 (R132H)) [M]	SMILES
3.1e-06	5.36e-07	Cc1cccc(NC(=O)c2nc(Cc3ccccc3)n3c2CN(C(=O)c2ccc[nH]2)CC3)c1 [Compound 5-1, 3-benzyl-7-(1H-pyrrole-2-carbonyl)-N-(m-tolyl)-5,6,7,8-tetrahydroimidazo[1,5-a]pyrazine-1-carboxamide]
–	1.64e-06	C[C@H](O)c1cccc(NC(=O)c2nc(Cc3ccccc3)n3c2CN(C(=O)c2ccc[nH]2)CC3)c1 [Compound 5-2, (S)-3-benzyl-N-(3-(1-hydroxyethyl)phenyl)-7-(1H-pyrrole-2-carbonyl)-5,6,7,8-tetrahydroimidazo[1,5-a]pyrazine-1-carboxamide]
